Data on 2 compounds can be found in patent US20250249110A1, “ANTIMICROBIAL PEPTIDE DERIVATIVE AND USE THEREOF” (SICHUAN UNIVERSITY, priority 2016, published 2025).

Where no end group is shown, it is not given here.

In series [1] the test system is red blood cells. The settings on record: cited from earlier work.
Series [2] relates to staphylococcus aureus. The note with it: background statement; cited from earlier work.
Series [3] concerns red blood cells. The experiment in a line: Hemolysis test in vitro. It is filed as cell-based, human (healthy volunteers). The settings on record: FIG. 5B. As to the method: In the hemolysis test, DP7 and DP7-C at the same concentration were detected for the hemolysis of red blood cells. • 1. Take the blood of healthy volunteers and put into an anticoagulant tube and gently mix. • 2. Take out the anticoagulant, add isometric physiological saline, mix slowly and evenly, centrifuge at 400×g for 10 min, and discard the supernatant. • 3. Slowly mix the red blood cells and wash with PBS, centrifuge at 400×g for 10 min, discard the supernatant, and wash the cell precipitate with PBS for three times. • 4. Dilute with PBS to obtain 20% (v/v) red blood cell solution, which can be used immediately or stored at 4° C. for about 2 weeks (without hemolysis). • 5. Dilute the drug into a series of concentration gradients with PBS, add 100 μL of drug into a 96-well plate, take 100 μL of 2% Twain 20 as the positive control, add 100 μL of PBS to the negative control. Repeat the process 3 times for each concentration of drug. • 6. Dilute 20% (v/v) of red blood cell solution with PBS according to the volume ratio of 1:20, mix evenly and add to a 96-well plate, with the drug concentration of 100, 200, 400, 600, 800, 1000, 1200, 1600 μg/mL respectively, and incubate at 37° C. for 1 h. • 7. Incubate the mixture of drugs and red blood cells, centrifuge at 900×g for 10 min, add 160 μL of the supernatant to a new 96-well plate, and read the absorbance value at OD 450 nm. • 8. According to the absorbance value of A450, calculate the percentage of hemolysis corresponding to each concentration of drugs.
The calculation formula of the percentage of hemolysis is: […]

Series [4] relates to Staphylococcus aureus 33591. The experiment in a line: Intra-abdominally infected mouse model. Type of series: in vivo. The settings on record: intravenous administration; DP7-C 1 mg/kg, VAN 20 mg/kg; vs NS group, p<0.01. As to the method: The anti-infection activity of DP7-C is determined by the intra-abdominally infected models. […]
The experimental steps are as follows: • (1) Activate Staphylococcus aureus 33591 with MHB the day before the experiment, wash the activated strains twice with normal saline on the day of the experiment, and determine the concentration of bacterial liquid for later use. • (2) To establish an abdominally infected mouse model, intraperitoneally inject the bacterial solution of 1.5×10^8 cfu/0.5 mL into each mouse. • (3) Intravenously inject the drug by group after one hour of infection, 0.1 mL/mouse. • (4) 24 h later, intraperitoneally inject 5 mL of normal saline into the mouse, gently massage the abdomen, kill the mouse and disinfect with 75% alcohol. After 5 min, scissor the abdominal cavity epithelium, make a small opening in the abdominal cavity, draw ascites as much as possible from the opening with a 1 ml syringe, and then transfer to a sterile EP tube for mixing. • (5) Dilute with normal saline at a dilution of, for example, 10×, 100×, 1000× and 10000×; take three bacterial solutions with suitable concentrations, 20 μL each, coat the MHA plate and incubate in a bacteria incubator overnight. • (6) Select a plate with 20-200 colonies and convert and calculate the amount of bacteria per milliliter in 5 milliliters of ascites.

As for “VQWRIRVAVIRK-NH2 [DP7, VQWRIRVAVIRK-NH2]”, the lethality result in series [1] (high concentration, intravenous injection) is “kill mice”. Besides, in series [1] (mouse, in vivo, iv), the “hemolysis of red blood cells” value was “cause hemolysis of red blood cells”. In addition, the “therapeutic effect in vivo” value in series [2] was “very good therapeutic effect”. In addition, the “appearance of hemolysis test” value in series [3] is “red blood cells are lysed”.
Turning to `CN[C@H](CC(C)C)C(=O)N[C@H]1C(=O)N[C@@H](CC(N)=O)C(=O)N[C@H]2C(=O)N[C@H]3C(=O)N[C@H](C(=O)N[C@H](C(=O)O)c4cc(O)cc(O)c4-c4cc3ccc4O)[C@H](O)c3ccc(c(Cl)c3)Oc3cc2cc(c3O[C@@H]2O[C@H](CO)[C@@H](O)[C@H](O)[C@H]2O[C@H]2C[C@](C)(N)[C@H](O)[C@H](C)O2)Oc2ccc(cc2Cl)[C@H]1O` [VAN, Vancomycin, reference compound], the “average colony forming unit (CFU) of Staphylococcus aureus” value in series [4] is “significantly lower than those in NS group”.
